Source: publication PMC5760531, “Action Potential Recording and Pro-arrhythmia Risk Analysis in Human Ventricular Trabeculae” (Frontiers in Physiology, 2018)

Legend:
[1] = human free (unbound) effective therapeutic plasma concentration used to calculate multiples; cited from earlier work
[2] = system: human ventricular trabeculae; test: Action potential recording and pro-arrhythmic score analysis in human ventricular trabeculae (hVT);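 note: sharp microelectrode action potential recordings at 37°C in Tyrode-perfused trabeculae, 4 cumulative concentrations each applied 31 min, values averaged over last 30 APs, vehicle 0.1% DMSO as control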
[3] = 1Hz, 0.1-FOLD free ETPC (0.003µM)
[4] = 1Hz, 1-FOLD free ETPC (0.003µM)
[5] = 1Hz, 10-FOLD free ETPC (0.003µM)
[6] = 1Hz, 100-FOLD free ETPC (0.003µM)
[7] = 2Hz, 0.1-FOLD free ETPC (0.003µM)
[8] = 2Hz, 1-FOLD free ETPC (0.003µM)
[9] = 2Hz, 10-FOLD free ETPC (0.003µM)
[10] = 2Hz, 100-FOLD free ETPC (0.003µM)

COc1cc(N)c(Cl)cc1C(=O)NC1CCN(CCCOc2ccc(F)cc2)CC1OC (stereo not shown) [CISAPRIDE, Cisapride]
Free ETPC [1]: 0.003 µM | AMAX [2, 3]: 111 | AMAX percentage change compared to vehicle control [2, 3]: -2% | APD30 [2, 3]: 153 | APD30 percentage change compared to vehicle control [2, 3]: -14% | APD50 [2, 3]: 205 | APD50 percentage change compared to vehicle control [2, 3]: -13% | APD90 [2, 3]: 281 | APD90 percentage change compared to vehicle control [2, 3]: -10% | Alternans [2, 3]: 0.75 | Alternans percentage change compared to vehicle control [2, 3]: 14% | Beat Escape [2, 3]: 0 | Beat Escape percentage change compared to vehicle control [2, 3]: 0% | EADs [2, 3]: 0 | EADs percentage change compared to vehicle control [2, 3]: 0% | ERP [2, 3]: 0.45 | ERP percentage change compared to vehicle control [2, 3]: 3% | Max Dispersion [2, 3]: 3.28 | Max Dispersion percentage change compared to vehicle control [2, 3]: 11% | RMP [2, 3]: -94 | RMP percentage change compared to vehicle control [2, 3]: -1% | Refractoriness Escape [2, 3]: 0 | Refractoriness Escape percentage change compared to vehicle control [2, 3]: 0% | STV [2, 3]: 0.54 | STV percentage change compared to vehicle control [2, 3]: 22% | Triangulation [2, 3]: 127 | Triangulation percentage change compared to vehicle control [2, 3]: -3% | AMAX [2, 4]: 111 | AMAX percentage change compared to vehicle control [2, 4]: -2% | APD30 [2, 4]: 161 | APD30 percentage change compared to vehicle control [2, 4]: -11% | APD50 [2, 4]: 213 | APD50 percentage change compared to vehicle control [2, 4]: -10% | APD90 [2, 4]: 286 | APD90 percentage change compared to vehicle control [2, 4]: -9% | Alternans [2, 4]: 0.76 | Alternans percentage change compared to vehicle control [2, 4]: 16% | Beat Escape [2, 4]: 0 | Beat Escape percentage change compared to vehicle control [2, 4]: 0% | EADs [2, 4]: 0 | EADs percentage change compared to vehicle control [2, 4]: 0% | ERP [2, 4]: 0.44 | ERP percentage change compared to vehicle control [2, 4]: 1% | Max Dispersion [2, 4]: 3.20 | Max Dispersion percentage change compared to vehicle control [2, 4]: 8% | RMP [2, 4]: -96 | RMP percentage change compared to vehicle control [2, 4]: 0% | Refractoriness Escape [2, 4]: 0 | Refractoriness Escape percentage change compared to vehicle control [2, 4]: 0% | STV [2, 4]: 0.57 | STV percentage change compared to vehicle control [2, 4]: 42% | Triangulation [2, 4]: 124 | Triangulation percentage change compared to vehicle control [2, 4]: -5% | AMAX [2, 5]: 111 | AMAX percentage change compared to vehicle control [2, 5]: -1% | APD30 [2, 5]: 148 | APD30 percentage change compared to vehicle control [2, 5]: -17% | APD50 [2, 5]: 206 | APD50 percentage change compared to vehicle control [2, 5]: -13% | APD90 [2, 5]: 285 | APD90 percentage change compared to vehicle control [2, 5]: -8% | Alternans [2, 5]: 0.37 | Alternans percentage change compared to vehicle control [2, 5]: -44% | Beat Escape [2, 5]: 0 | Beat Escape percentage change compared to vehicle control [2, 5]: 0% | EADs [2, 5]: 0 | EADs percentage change compared to vehicle control [2, 5]: 0% | ERP [2, 5]: 0.48 | ERP percentage change compared to vehicle control [2, 5]: 11% | Max Dispersion [2, 5]: 2.73 | Max Dispersion percentage change compared to vehicle control [2, 5]: -8% | RMP [2, 5]: -99 | RMP percentage change compared to vehicle control [2, 5]: 4% | Refractoriness Escape [2, 5]: 0 | Refractoriness Escape percentage change compared to vehicle control [2, 5]: 0% | STV [2, 5]: 0.27 | STV percentage change compared to vehicle control [2, 5]: -31% | Triangulation [2, 5]: 137 | Triangulation percentage change compared to vehicle control [2, 5]: 4% | AMAX [2, 6]: 116 | AMAX percentage change compared to vehicle control [2, 6]: 3% | APD30 [2, 6]: 158 | APD30 percentage change compared to vehicle control [2, 6]: -12% | APD50 [2, 6]: 224 | APD50 percentage change compared to vehicle control [2, 6]: -6% | APD90 [2, 6]: 312 | APD90 percentage change compared to vehicle control [2, 6]: 0% | Alternans [2, 6]: 0.54 | Alternans percentage change compared to vehicle control [2, 6]: -17% | Beat Escape [2, 6]: 0 | Beat Escape percentage change compared to vehicle control [2, 6]: 0% | EADs [2, 6]: 0 | EADs percentage change compared to vehicle control [2, 6]: 0% | ERP [2, 6]: 0.49 | ERP percentage change compared to vehicle control [2, 6]: 14% | Max Dispersion [2, 6]: 2.75 | Max Dispersion percentage change compared to vehicle control [2, 6]: -7% | RMP [2, 6]: -102 | RMP percentage change compared to vehicle control [2, 6]: 7% | Refractoriness Escape [2, 6]: 0 | Refractoriness Escape percentage change compared to vehicle control [2, 6]: 0% | STV [2, 6]: 0.37 | STV percentage change compared to vehicle control [2, 6]: 3% | Triangulation [2, 6]: 154 | Triangulation percentage change compared to vehicle control [2, 6]: 17% | AMAX [2, 7]: 110 | AMAX percentage change compared to vehicle control [2, 7]: -2% | APD30 [2, 7]: 114 | APD30 percentage change compared to vehicle control [2, 7]: -10% | APD50 [2, 7]: 157 | APD50 percentage change compared to vehicle control [2, 7]: -8% | APD90 [2, 7]: 228 | APD90 percentage change compared to vehicle control [2, 7]: -6% | Alternans [2, 7]: 0.98 | Alternans percentage change compared to vehicle control [2, 7]: 18% | Beat Escape [2, 7]: 0 | Beat Escape percentage change compared to vehicle control [2, 7]: 0% | EADs [2, 7]: 0 | EADs percentage change compared to vehicle control [2, 7]: 0% | ERP [2, 7]: 0.47 | ERP percentage change compared to vehicle control [2, 7]: 1% | Max Dispersion [2, 7]: 4.08 | Max Dispersion percentage change compared to vehicle control [2, 7]: 3% | RMP [2, 7]: -94 | RMP percentage change compared to vehicle control [2, 7]: 0% | Refractoriness Escape [2, 7]: 0 | Refractoriness Escape percentage change compared to vehicle control [2, 7]: 0% | STV [2, 7]: 0.76 | Triangulation [2, 7]: 114 | Triangulation percentage change compared to vehicle control [2, 7]: -2% | AMAX [2, 8]: 109 | AMAX percentage change compared to vehicle control [2, 8]: -3% | APD30 [2, 8]: 115 | APD30 percentage change compared to vehicle control [2, 8]: -10% | APD50 [2, 8]: 156 | APD50 percentage change compared to vehicle control [2, 8]: -10% | APD90 [2, 8]: 225 | APD90 percentage change compared to vehicle control [2, 8]: -8% | Alternans [2, 8]: 0.99 | Alternans percentage change compared to vehicle control [2, 8]: 20% | Beat Escape [2, 8]: 0 | Beat Escape percentage change compared to vehicle control [2, 8]: 0% | EADs [2, 8]: 0 | EADs percentage change compared to vehicle control [2, 8]: 0% | ERP [2, 8]: 0.46 | ERP percentage change compared to vehicle control [2, 8]: 1% | Max Dispersion [2, 8]: 4.38 | Max Dispersion percentage change compared to vehicle control [2, 8]: 10% | RMP [2, 8]: -94 | RMP percentage change compared to vehicle control [2, 8]: 0% | Refractoriness Escape [2, 8]: 0 | Refractoriness Escape percentage change compared to vehicle control [2, 8]: 0% | STV [2, 8]: 0.66 | Triangulation [2, 8]: 110 | Triangulation percentage change compared to vehicle control [2, 8]: -6% | AMAX [2, 9]: 114 | AMAX percentage change compared to vehicle control [2, 9]: 1% | APD30 [2, 9]: 110 | APD30 percentage change compared to vehicle control [2, 9]: -13% | APD50 [2, 9]: 157 | APD50 percentage change compared to vehicle control [2, 9]: -9% | APD90 [2, 9]: 231 | APD90 percentage change compared to vehicle control [2, 9]: -5% | Alternans [2, 9]: 0.63 | Alternans percentage change compared to vehicle control [2, 9]: -24% | Beat Escape [2, 9]: 0 | Beat Escape percentage change compared to vehicle control [2, 9]: 0% | EADs [2, 9]: 0 | EADs percentage change compared to vehicle control [2, 9]: 0% | ERP [2, 9]: 0.50 | ERP percentage change compared to vehicle control [2, 9]: 10% | Max Dispersion [2, 9]: 2.55 | Max Dispersion percentage change compared to vehicle control [2, 9]: -36% | RMP [2, 9]: -100 | RMP percentage change compared to vehicle control [2, 9]: 6% | Refractoriness Escape [2, 9]: 0 | Refractoriness Escape percentage change compared to vehicle control [2, 9]: 0% | STV [2, 9]: 0.45 | Triangulation [2, 9]: 122 | Triangulation percentage change compared to vehicle control [2, 9]: 4% | AMAX [2, 10]: 114 | AMAX percentage change compared to vehicle control [2, 10]: 2% | APD30 [2, 10]: 114 | APD30 percentage change compared to vehicle control [2, 10]: -10% | APD50 [2, 10]: 168 | APD50 percentage change compared to vehicle control [2, 10]: -3% | APD90 [2, 10]: 254 | APD90 percentage change compared to vehicle control [2, 10]: 4% | Alternans [2, 10]: 0.75 | Alternans percentage change compared to vehicle control [2, 10]: -9% | Beat Escape [2, 10]: 0 | Beat Escape percentage change compared to vehicle control [2, 10]: 0% | EADs [2, 10]: 0 | EADs percentage change compared to vehicle control [2, 10]: 0% | ERP [2, 10]: 0.52 | ERP percentage change compared to vehicle control [2, 10]: 13% | Max Dispersion [2, 10]: 3.75 | Max Dispersion percentage change compared to vehicle control [2, 10]: -6% | RMP [2, 10]: -101 | RMP percentage change compared to vehicle control [2, 10]: 7% | Refractoriness Escape [2, 10]: 0 | Refractoriness Escape percentage change compared to vehicle control [2, 10]: 0% | STV [2, 10]: 0.56 | Triangulation [2, 10]: 140 | Triangulation percentage change compared to vehicle control [2, 10]: 20%
